From patent US9453062B2, “Glucose dependent insulinotropic polypeptide analogs, pharmaceutical compositions and use thereof” (Beijing Hanmi Pharmaceutical Co., Ltd., priority 2011, dated 2016)
Where a SMILES comes first, the peptide text is derived from it. [ ]: non-standard residue; d: D form. The star is where a group is joined. Palmitoyl = CCCCCCCCCCCCCCCC(=O)*; Aib = CC(C)(N)C(=O)O

Assays:
[1] = molecular target: T1, hGIPR (Homo sapiens, UniProt P48546); experiment: hGIPR-mediated cAMP induction assay in CHO cell line; type: cell-based; conditions: Table 3; for EC50: CHO hGIPR cells; for GIP Receptor Relative Potency: against native GIP
T1 construct: expressed in transfected cells; host or cells: CHO
T1 sequence (P48546 22-466): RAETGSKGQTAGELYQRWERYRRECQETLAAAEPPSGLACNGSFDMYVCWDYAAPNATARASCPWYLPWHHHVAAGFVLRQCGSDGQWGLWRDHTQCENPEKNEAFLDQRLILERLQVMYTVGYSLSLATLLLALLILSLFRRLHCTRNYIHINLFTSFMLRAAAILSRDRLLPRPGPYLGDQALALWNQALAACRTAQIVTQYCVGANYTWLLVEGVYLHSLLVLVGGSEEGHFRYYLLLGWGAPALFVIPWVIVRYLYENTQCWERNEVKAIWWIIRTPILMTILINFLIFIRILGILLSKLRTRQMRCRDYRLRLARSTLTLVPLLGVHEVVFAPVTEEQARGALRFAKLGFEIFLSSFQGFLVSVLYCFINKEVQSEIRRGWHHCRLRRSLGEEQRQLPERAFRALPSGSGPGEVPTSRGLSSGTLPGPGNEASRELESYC

[2] = molecular target: T2, hGLP-1R (Homo sapiens, UniProt P43220); experiment: hGLP-1R-mediated cAMP induction assay in CHO cell line; type: cell-based; conditions: Table 3; for EC50: CHO hGLP1R cells; for GLP-1 Receptor Relative Potency: against native GLP-1;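 for all read-outs here: CHO cells expressing human GLP-1R, treated 30 min at 37 °C, intracellular cAMP measured by competitive fluorescent immunoassay and converted via a cAMP standard curve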
T2 construct: expressed in transfected cells; host or cells: CHO
T2 sequence (P43220 24-463): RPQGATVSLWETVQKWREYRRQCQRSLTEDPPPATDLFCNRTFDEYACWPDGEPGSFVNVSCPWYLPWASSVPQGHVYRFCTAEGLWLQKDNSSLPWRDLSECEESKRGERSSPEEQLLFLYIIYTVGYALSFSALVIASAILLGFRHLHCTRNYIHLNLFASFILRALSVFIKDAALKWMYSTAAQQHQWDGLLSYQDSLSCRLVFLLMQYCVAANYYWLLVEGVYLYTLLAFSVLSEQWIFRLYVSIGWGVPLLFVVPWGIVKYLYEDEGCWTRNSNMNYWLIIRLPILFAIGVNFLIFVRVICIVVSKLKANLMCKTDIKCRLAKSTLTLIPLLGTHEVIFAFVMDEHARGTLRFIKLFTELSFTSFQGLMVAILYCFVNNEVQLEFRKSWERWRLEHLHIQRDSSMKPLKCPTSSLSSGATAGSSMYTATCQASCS
Description: The cAMP in the sample or standard competes with horseradish peroxidase (HRP)-labeled cAMP conjugate for binding sites on the anti-cAMP antibodies. In the absence of cAMP, most of the HRP-cAMP conjugate is bound to the antibody. Increasing concentrations of cAMP competitively decrease the amount of bound conjugate, thus decreasing measured HRP activity.
Assay kit: CatchPoint™ Cyclic-AMP Fluorescent Assay Kit (Molecular Devices, Product # R8088)
Cell lines: CHO hGLP1R, CHO hGIPR
Cell seeding: CHO hGLP1R or CHO hGIPR cells: 10,000 cells/well/100 uL at 37° C. 5% CO2 overnight.
Gently aspirate off media and wash the cells with KRBG Buffer, 100 uL/well.
Incubate the plate for 10 min at room temperature. Then add the KRBG buffer with 3× final concentration of the tested samples (5-foled series diluted from 5,000 nM), 50 uL/well. Incubate the plate at 37° C. 5% CO2 for 30 min.
Add 50 uL of Lysis buffer to each well and put the plate on a shaker for 10 min.
Place 40 uL of samples and analyze in appropriate wells. And test the cAMP concentration in each sample by following the manufacture's instruction.
Detect the fluorescence signal at Ex: 490 nm and Em: 530 nm. Transfer the FI signal to cAMP concentration by the cAMP standard curve. The Dose-response curve and EC50 were obtained by logistic fitting of Origin 8.

CC[C@H](C)[C@H](NC(=O)[C@H](CO)NC(=O)[C@H](Cc1ccc(O)cc1)NC(=O)[C@H](CC(=O)O)NC(=O)[C@H](CO)NC(=O)[C@@H](NC(=O)[C@H](Cc1ccccc1)NC(=O)[C@@H](NC(=O)CNC(=O)[C@H](CCC(=O)O)NC(=O)C(C)(C)NC(=O)[C@@H](N)Cc1ccc(O)cc1)[C@@H](C)O)[C@@H](C)O)C(=O)N[C@@H](Cc1ccc(O)cc1)C(=O)N[C@@H](CCSC)C(=O)N[C@@H](CCC(=O)O)C(=O)N[C@@H](CCCCN)C(=O)N[C@@H](CCC(=O)O)C(=O)N[C@@H](C)C(=O)N[C@H](C(=O)N[C@@H](CCCNC(=N)N)C(=O)N[C@@H](CCC(=O)O)C(=O)N[C@@H](Cc1ccccc1)C(=O)N[C@H](C(=O)N[C@@H](CS)C(=O)N[C@@H](Cc1c[nH]c2ccccc12)C(=O)N[C@@H](CC(C)C)C(=O)N[C@H](C(=O)N[C@@H](CCCCN)C(=O)NCC(=O)NCC(=O)N1CCC[C@H]1C(=O)N[C@@H](CO)C(=O)N[C@@H](CO)C(=O)NCC(=O)N[C@@H](C)C(=O)N1CCC[C@H]1C(=O)N1CCC[C@H]1C(=O)N1CCC[C@H]1C(=O)N[C@@H](CO)C(=O)N[C@@H](CCCCN)C(N)=O)C(C)C)[C@@H](C)CC)C(C)C [Compound 105] (H-Y[Aib]EGTFTSDYSIYMEKEAVREFICWLVKGGPSSGAPPPSK-NH2; N-terminus assumed)
EC50 [1]: 0.4 nM
EC50 [2]: 3.94 nM

CC[C@H](C)[C@H](NC(=O)[C@H](Cc1ccccc1)NC(=O)[C@H](CCC(=O)O)NC(=O)[C@H](CCCNC(=N)N)NC(=O)[C@@H](NC(=O)[C@H](C)NC(=O)[C@H](CCC(=O)O)NC(=O)[C@H](CCCCN)NC(=O)[C@H](CCC(=O)O)NC(=O)[C@H](CCSC)NC(=O)[C@H](Cc1ccc(O)cc1)NC(=O)[C@@H](NC(=O)[C@H](CO)NC(=O)[C@H](Cc1ccc(O)cc1)NC(=O)[C@H](CC(=O)O)NC(=O)[C@H](CO)NC(=O)[C@@H](NC(=O)[C@H](Cc1ccccc1)NC(=O)[C@@H](NC(=O)CNC(=O)[C@H](CCC(=O)O)NC(=O)C(C)(C)NC(=O)[C@@H](N)Cc1ccc(O)cc1)[C@@H](C)O)[C@@H](C)O)[C@@H](C)CC)C(C)C)C(=O)N[C@@H](C)C(=O)N[C@@H](Cc1c[nH]c2ccccc12)C(=O)N[C@@H](CC(C)C)C(=O)N[C@H](C(=O)N[C@@H](CCCCN)C(=O)NCC(=O)NCC(=O)N1CCC[C@H]1C(=O)N[C@@H](CO)C(=O)N[C@@H](CO)C(=O)NCC(=O)N[C@@H](C)C(=O)N1CCC[C@H]1C(=O)N1CCC[C@H]1C(=O)N1CCC[C@H]1C(=O)N[C@@H](CO)C(=O)N[C@@H](CCCCNC(=O)CCCC[C@@H]1SC[C@@H]2NC(=O)N[C@@H]21)C(N)=O)C(C)C [Compound 074]
EC50 [1]: 0.43 nM
GIP Receptor Relative Potency [1]: 39.5
EC50 [2]: 1.05 nM
GLP-1 Receptor Relative Potency [2]: 90.7

CCCCCCCCCCCCCCCC(=O)NCCCC[C@H](NC(=O)[C@H](CO)NC(=O)[C@@H]1CCCN1C(=O)[C@@H]1CCCN1C(=O)[C@@H]1CCCN1C(=O)[C@H](C)NC(=O)CNC(=O)[C@H](CO)NC(=O)[C@H](CO)NC(=O)[C@@H]1CCCN1C(=O)CNC(=O)CNC(=O)[C@H](CCCCN)NC(=O)[C@@H](NC(=O)[C@H](CC(C)C)NC(=O)[C@H](Cc1c[nH]c2ccccc12)NC(=O)[C@H](C)NC(=O)[C@@H](NC(=O)[C@H](Cc1ccccc1)NC(=O)[C@H](CCC(=O)O)NC(=O)[C@H](CCCNC(=N)N)NC(=O)[C@@H](NC(=O)[C@H](C)NC(=O)[C@H](CCC(=O)O)NC(=O)[C@H](CCCCN)NC(=O)[C@H](CCC(=O)O)NC(=O)[C@H](CCSC)NC(=O)[C@H](Cc1ccc(O)cc1)NC(=O)[C@@H](NC(=O)[C@H](CO)NC(=O)[C@H](Cc1ccc(O)cc1)NC(=O)[C@H](CC(=O)O)NC(=O)[C@H](CO)NC(=O)[C@@H](NC(=O)[C@H](Cc1ccccc1)NC(=O)[C@@H](NC(=O)CNC(=O)[C@H](CCC(N)=O)NC(=O)C(C)(C)NC(=O)[C@@H](N)Cc1ccc(O)cc1)[C@@H](C)O)[C@@H](C)O)[C@@H](C)CC)C(C)C)[C@@H](C)CC)C(C)C)C(N)=O [Compound 120] (H-Y[Aib]QGTFTSDYSIYMEKEAVREFIAWLVKGGPSSGAPPPSK(Palmitoyl)-NH2)
EC50 [1]: 0.039 nM
GIP Receptor Relative Potency [1]: 294.9
EC50 [2]: 0.253 nM
GLP-1 Receptor Relative Potency [2]: 586.6

CC[C@H](C)[C@H](NC(=O)[C@H](Cc1ccccc1)NC(=O)[C@H](CCC(=O)O)NC(=O)[C@H](CCCNC(=N)N)NC(=O)[C@@H](NC(=O)[C@H](C)NC(=O)[C@H](CCC(=O)O)NC(=O)[C@H](CCCCN)NC(=O)[C@H](CCC(=O)O)NC(=O)[C@H](CCSC)NC(=O)[C@H](Cc1ccc(O)cc1)NC(=O)[C@@H](NC(=O)[C@H](CO)NC(=O)[C@H](Cc1ccc(O)cc1)NC(=O)[C@H](CC(=O)O)NC(=O)[C@H](CO)NC(=O)[C@@H](NC(=O)[C@H](Cc1ccccc1)NC(=O)[C@@H](NC(=O)CNC(=O)[C@H](CCC(=O)O)NC(=O)C(C)(C)NC(=O)[C@@H](N)Cc1ccc(O)cc1)[C@@H](C)O)[C@@H](C)O)[C@@H](C)CC)C(C)C)C(=O)N[C@@H](C)C(=O)N[C@@H](Cc1c[nH]c2ccccc12)C(=O)N[C@@H](CC(C)C)C(=O)N[C@H](C(=O)N[C@@H](CCCCN)C(=O)NCC(=O)NCC(=O)N1CCC[C@H]1C(=O)N[C@@H](CO)C(=O)N[C@@H](CO)C(=O)NCC(=O)N[C@@H](C)C(=O)N1CCC[C@H]1C(=O)N1CCC[C@H]1C(=O)N1CCC[C@H]1C(=O)N[C@@H](CO)C(=O)N[C@@H](CCCCN)C(N)=O)C(C)C [Compound 066]
GIP Receptor Relative Potency [1]: 50
EC50 [2]: 2.5 nM
GLP-1 Receptor Relative Potency [2]: 43.7

CC[C@H](C)[C@H](NC(=O)[C@H](Cc1ccccc1)NC(=O)[C@H](CCC(=O)O)NC(=O)[C@H](CCCNC(=N)N)NC(=O)[C@@H](NC(=O)[C@H](C)NC(=O)[C@H](CCC(=O)O)NC(=O)[C@H](CCCCN)NC(=O)[C@H](CCC(=O)O)NC(=O)[C@H](CCSC)NC(=O)[C@H](Cc1ccc(O)cc1)NC(=O)[C@@H](NC(=O)[C@H](CO)NC(=O)[C@H](Cc1ccc(O)cc1)NC(=O)[C@H](CC(=O)O)NC(=O)[C@H](CO)NC(=O)[C@@H](NC(=O)[C@H](Cc1ccccc1)NC(=O)[C@@H](NC(=O)CNC(=O)[C@H](CCC(=O)O)NC(=O)C(C)(C)NC(=O)[C@@H](N)Cc1ccc(O)cc1)[C@@H](C)O)[C@@H](C)O)[C@@H](C)CC)C(C)C)C(=O)N[C@@H](C)C(=O)N[C@@H](Cc1c[nH]c2ccccc12)C(=O)N[C@@H](CC(C)C)C(=O)N[C@H](C(=O)N[C@@H](CCCCN)C(=O)NCC(=O)N[C@@H](CCCNC(=N)N)C(=O)N[C@@H](CCCNC(=N)N)C(=O)N[C@@H](CCCNC(=N)N)C(=O)N[C@@H](CCCNC(=N)N)C(=O)N[C@@H](CCCNC(=N)N)C(=O)N[C@@H](CCCNC(=N)N)C(N)=O)C(C)C [Compound 075] (H-Y[Aib]EGTFTSDYSIYMEKEAVREFIAWLVKGRRRRRR-NH2; N-terminus assumed)
GIP Receptor Relative Potency [1]: 8.3
GLP-1 Receptor Relative Potency [2]: 77.7
